{
  "source": "patent US20220110910A1",
  "about": "“CANNABINOID-CONTAINING COMPLEX MIXTURES FOR THE TREATMENT OF CYTOKINE RELEASE SYNDROME WHILE PRESERVING KEY ANTI-VIRAL IMMUNE REACTIONS” (GBS Global BioPharma, Inc., priority 2020, published 2022)",
  "format_in_all_cases": "cell-based, human",
  "key": {"monocytes [1]": {"test_system": "monocytes", "test": "IL-6+ monocytes after LPS stimulation (intracellular staining)", "details": "LPS 1000 ng/mL, vs vehicle", "procedure": "(§1) In immunological activity experiments, PBMC suspensions were pre-treated with cannabinoid and/or terpene compounds for 30 minutes before treatment with designated stimuli, cultured in 96 well tissue culture plates, and incubated at 37° C. and 5.0% CO2. In pDC experiments, cell suspensions were stimulated with CpG-ODN Type A 2216 (15 μg/mL) (InvivoGen©, San Diego, Calif.) following treatment with cannabinoids. Golgi transport inhibitors Monensin (2 μM)/Brefeldin A (3.0 μg/mL) (Thermo Fisher Scientific, Waltham, Mass.) were added to culture 3 hours post-stimulation, and after 7 hours of stimulation cells were harvested for evaluation by flow cytometry for IFNα and TNFα. In monocyte experiments, cell suspensions were stimulated with 1000 ng/mL LPS (S. typhosa, Sigma Aldrich, St. Louis, Mo.) for 18 hours before harvesting supernatants for IL-1β, Golgi blocked for 6 hours before harvesting cells for assessment of IL-6, or cultured for 48 hours before harvesting cells for assessment of HLA-DR, CD80, and CD86. In phagocytosis experiments, cell suspensions were treated with 3.0 mg/mL of pHrodo Green BioParticles (Thermo Fisher). […] CD25 and CD69 were assessed by flow cytometry 24 hours post-stimulation. In proliferation experiments, cell suspensions were incubated with CFSE Cell Division Tracker (Biolegend) according to manufacturer protocols, harvested 4 days post-stimulation and assessed by flow cytometry. […]\n(§2) In brief, pDC, monocyte and T cell were identified using antibodies directed against unique epitopes for each cell type and analyzed by flow cytometry. […] For intracellular staining, fixed cells were permeabilized in BD Permwash and incubated with appropriate antibodies and 7% human AB serum. pDC were identified as CD303+and assessed for intracellular IFNα and TNFα. Monocytes were identified as CD14+ and assessed for extracellular HLA-DR, CD80, CD86, and intracellular TNFα and IL-6. […] T cells were identified as CD3+ and T cell subsets identified by CD4+ and CD8+ and assessed for extracellular CD25 and CD69 and intracellular IFNγ and IL-4. […]"}, "CD4+ T cells [2]": {"test_system": "CD4+ T cells", "test": "T cell proliferation (CFSE, FlowJo Proliferation tool)", "details": "10 μM", "procedure": "(§3) In immunological activity experiments, PBMC suspensions were pre-treated with cannabinoid and/or terpene compounds for 30 minutes before treatment with designated stimuli, cultured in 96 well tissue culture plates, and incubated at 37° C. and 5.0% CO2. In pDC experiments, cell suspensions were stimulated with CpG-ODN Type A 2216 (15 μg/mL) (InvivoGen©, San Diego, Calif.) following treatment with cannabinoids. Golgi transport inhibitors Monensin (2 μM)/Brefeldin A (3.0 μg/mL) (Thermo Fisher Scientific, Waltham, Mass.) were added to culture 3 hours post-stimulation, and after 7 hours of stimulation cells were harvested for evaluation by flow cytometry for IFNα and TNFα. In monocyte experiments, cell suspensions were stimulated with 1000 ng/mL LPS (S. typhosa, Sigma Aldrich, St. Louis, Mo.) for 18 hours before harvesting supernatants for IL-1β, Golgi blocked for 6 hours before harvesting cells for assessment of IL-6, or cultured for 48 hours before harvesting cells for assessment of HLA-DR, CD80, and CD86. In phagocytosis experiments, cell suspensions were treated with 3.0 mg/mL of pHrodo Green BioParticles (Thermo Fisher). In T cell experiments, cells were plated on 96 well tissue culture plates pre-coated with 5.0 μg/mL anti-CD3 (clone UCHT1, Biolegend, San Diego, Calif.) and stimulated with 5.0 μg/mL anti-CD28 (clone 28.2, Biolegend) and supplemented with 5.0 ng/mL IL-2 (Roche Applied Science, Indianapolis, Ind.). CD25 and CD69 were assessed by flow cytometry 24 hours post-stimulation. In proliferation experiments, cell suspensions were incubated with CFSE Cell Division Tracker (Biolegend) according to manufacturer protocols, harvested 4 days post-stimulation and assessed by flow cytometry. Cell suspensions were further stimulated with 50 ng/mL phorbol 12-myristate 13-acetate (PMA) and 1000 ng/mL ionomycin (Io) at 4 days post-stimulation for 18 hours, Golgi blocked for 6 hours, and harvested for IL-4 and IFNγ assessment by flow cytometry.\nas §2, with “cytometry. Cells were fixed in BD CytoFix and resuspended in FACS buffer for extracellular staining.” for “cytometry.”"}, "CD8+ T cells [3]": {"test_system": "CD8+ T cells", "test": "T cell proliferation (CFSE, FlowJo Proliferation tool)", "details": "increasing concentration up to 10 μM", "procedure": "as §3\nas §2, with “cytometry. Cells were fixed in BD CytoFix and resuspended in FACS buffer for extracellular staining.” for “cytometry.”"}, "monocytes [4]": {"test_system": "monocytes", "test": "TNFα+ monocytes after CpG-ODN stimulation (intracellular staining)", "details": "CpG-ODN 15 μg/mL, 6 hours, vs vehicle", "procedure": "FIGS. 9A-9B reveal the TNFα decreasing potential of cannabinol (CBN). […] PBMC were isolated from human peripheral blood and pre-treated with the indicated concentrations of cannabinol for 30 minutes, followed by stimulation with 15 μg/mL CpG-ODN for 6 hours (FIG. 9A). Cells were non-enzymatically released from culture plates and assessed for the percentage of TNFα+ monocytes (FIG. 9A) by intracellular staining. For FIG. 9B, PBMC were isolated from human peripheral blood and pre-treated with the indicated concentrations of cannabinol for 30 minutes, followed by treatment with 3.0 mg/mL of pHrodo Green BioParticles (FIG. 9B). In FIG. 9B, cells were treated with 3.0 mg/mL of pHrodo Green BioParticles and assessed for phagocytosis monocytes by flow cytometry within 2 hours. Data are normalized to each donor's vehicle control when appropriate and presented as mean±SEM. N=4-6 donors per treatment group. […] *p<0.05 when compared to VH (FIG. 9A), or **p<0.01 when compared to VH (FIG. 9B), by repeated measure one-way ANOVA with Dunnett's posttest.\nas §2, with “cytometry. Cells were fixed in BD CytoFix and resuspended in FACS buffer for extracellular staining.” for “cytometry.”"}, "monocytes [5]": {"test_system": "monocytes", "test": "Co-stimulatory markers HLA-DR, CD80, CD86 on monocytes after LPS", "details": "2 days, vs vehicle", "procedure": "as §3\nIn brief, pDC, monocyte and T cell were identified using antibodies directed against unique epitopes for each cell type and analyzed by flow cytometry. Cells were fixed in BD CytoFix and resuspended in FACS buffer for extracellular staining. To determine the changes in cell viability in mixed PBMC, gates were first set on singlet events, then CD45+ cells, then populations identified by CD3+ (T cells) and CD14+ (monocytes), and then 7-AAD- for viability. Likewise, for pDC viability experiments, pDC were identified as CD303+ and viable by exclusion of Near IR L/D stain (Life Technologies, Carlsbad, Calif.). For intracellular staining, fixed cells were permeabilized in BD Permwash and incubated with appropriate antibodies and 7% human AB serum. pDC were identified as CD303+and assessed for intracellular IFNα and TNFα. Monocytes were identified as CD14+ and assessed for extracellular HLA-DR, CD80, CD86, and intracellular TNFα and IL-6. In phagocytosis experiments, PBMC were identified as CD45+ and monocytes were identified based on side scatter and then phagocytosing monocytes. T cells were identified as CD3+ and T cell subsets identified by CD4+ and CD8+ and assessed for extracellular CD25 and CD69 and intracellular IFNγ and IL-4. To analyze T cell proliferation, FlowJo 10.0 proliferation tool was used by setting the undivided peak of CFSE stained cells in each sample."}, "monocytes [6]": {"test_system": "monocytes", "test": "Phagocytosis of pHrodo Green BioParticles by monocytes", "details": "10 μM; pHrodo Green BioParticles 3.0 mg/mL; vs vehicle", "procedure": "as §1, §2"}, "monocytes [7]": {"test_system": "monocytes", "test": "IL-1β ELISA in supernatants of LPS-stimulated PBMC", "details": "LPS 1000 ng/mL, vs vehicle", "procedure": "as §3\nTo quantify IL-1β produced by monocytes, supernatants were collected from LPS stimulated cell suspensions after 18 hours and frozen at −80° C. ELISA MAX from Biolegend was used as per manufacturer protocol to quantify IL-1β to a sensitivity of […]."}, "CD8+ T cells [8]": {"test_system": "CD8+ T cells", "test": "T cell activation markers CD25 and CD69, 24 hours post-stimulation", "details": "10 μM", "procedure": "as §1, §2"}, "CD8+ T cells [9]": {"test_system": "CD8+ T cells", "test": "Intracellular IFNγ after anti-CD3/anti-CD28 stimulation and PMA/ionomycin", "details": "vs vehicle", "procedure": "as §3\nas §2, with “cytometry. Cells were fixed in BD CytoFix and resuspended in FACS buffer for extracellular staining.” for “cytometry.”"}, "CD4+ T cells [10]": {"test_system": "CD4+ T cells", "test": "Intracellular IFNγ and IL-4 after anti-CD3/anti-CD28 stimulation and PMA/ionomycin", "details": "vs vehicle", "procedure": "as §3\nas §2, with “cytometry. Cells were fixed in BD CytoFix and resuspended in FACS buffer for extracellular staining.” for “cytometry.”"}},
  "note": "Entries after “also recorded” stand apart in the source; their conditions may differ.",
  "data": [
    {"smiles": "CCCCCc1cc(O)c2c(c1)OC(C)(CCC=C(C)C)C=C2", "note": "(centres unmarked) [CBC, cannabichromene]", "values": [
      {"measurement": "IL-6 in monocytes", "setting": "monocytes [1]; 10 μM", "value": "significantly decreased"},
      {"measurement": "T cell proliferation in CD4+ T cells", "setting": "CD4+ T cells [2]", "value": "significantly decreased"},
      {"measurement": "T cell proliferation in CD8+ T cells", "setting": "CD8+ T cells [3]", "value": "not statistically significant"},
      {"measurement": "TNFα in monocytes", "setting": "monocytes [4]; 0.1 μM", "value": "significantly increased"},
      {"measurement": "HLA-DR co-stimulatory marker in monocytes", "setting": "monocytes [5]; 10 μM", "value": "increased"},
      {"measurement": "CD86+ co-stimulatory marker in monocytes", "setting": "monocytes [5]; 1-10 μM", "value": "increased"}
    ]},
    {"smiles": "C=C(C)[C@@H]1CCC(C)=C[C@H]1c1c(O)cc(CCCCC)cc1O", "note": "[CBD, cannabidiol, reference compound]", "values": [
      {"measurement": "phagocytosis by monocytes", "setting": "monocytes [6]", "value": "reduced; also recorded: significantly decreased"},
      {"measurement": "IL-6 in monocytes", "setting": "monocytes [1]; 10 μM", "value": "significantly decreased"},
      {"measurement": "IL-1β in monocytes", "setting": "monocytes [7]; 10 μM", "value": "significantly decreased"}
    ]},
    {"smiles": "C=C(C)[C@@H]1CCC(C)=C[C@H]1c1c(O)cc(CCC)cc1O", "note": "[CBDV, cannabidivarin]", "values": [
      {"measurement": "phagocytosis by monocytes", "setting": "monocytes [6]", "value": "significantly decreased"},
      {"measurement": "IL-6 in monocytes", "setting": "monocytes [1]; 1-10 μM", "value": "significantly decreased"},
      {"measurement": "IL-1β in monocytes", "setting": "monocytes [7]; 0.01 μM", "value": "increased; also recorded: significantly increases"},
      {"measurement": "IL-1β in monocytes", "setting": "monocytes [7]; 10 μM", "value": "significantly decreased"},
      {"measurement": "CD25+ activation marker in CD8+ T cells", "setting": "CD8+ T cells [8]", "value": "decreased"},
      {"measurement": "CD69+ activation marker in CD8+ T cells", "setting": "CD8+ T cells [8]", "value": "decreased"},
      {"measurement": "IFNγ in T cells (FIG. 8A: CD8+ T cells)", "setting": "CD8+ T cells [9]; 0.01 μM", "value": "significantly decreased"},
      {"measurement": "CD80+ co-stimulatory marker in monocytes", "setting": "monocytes [5]; 10 μM", "value": "significantly decreased"},
      {"measurement": "CD86+ co-stimulatory marker in monocytes", "setting": "monocytes [5]; 10 μM", "value": "increased"},
      {"measurement": "HLA-DR co-stimulatory marker in monocytes", "setting": "monocytes [5]; 10 μM", "value": "significantly decreased"}
    ]},
    {"smiles": "CCCCCc1cc(O)c(C/C=C(\\C)CCC=C(C)C)c(O)c1", "note": "[CBG, cannabigerol]", "values": [
      {"measurement": "IFNγ in CD4+ T cells", "setting": "CD4+ T cells [10]; 0.01-1 μM", "value": "significantly decreased"},
      {"measurement": "IL-4 levels in CD4+ T cells", "setting": "CD4+ T cells [10]; 0.1-1 μM", "value": "significantly decreased"},
      {"measurement": "IL-1β in monocytes", "setting": "monocytes [7]; 10 μM", "value": "significantly decreased"},
      {"measurement": "IFNγ in CD8+ T cells", "setting": "CD8+ T cells [9]; 0.01-1 μM", "value": "significantly decreased"},
      {"measurement": "HLA-DR co-stimulatory marker in monocytes", "setting": "monocytes [5]; 10 μM", "value": "increased; also recorded: enhanced"},
      {"measurement": "CD86+ co-stimulatory marker in monocytes", "setting": "monocytes [5]; 1-10 μM", "value": "increased; also recorded: enhanced"}
    ]},
    {"smiles": "CCCCCc1cc(O)c2c(c1)OC(C)(C)c1ccc(C)cc1-2", "note": "[CBN, cannabinol]", "values": [
      {"measurement": "IFNγ in CD4+ T cells", "setting": "CD4+ T cells [10]; 0.001-0.1 μM", "value": "significantly decreased"},
      {"measurement": "phagocytosis by monocytes", "setting": "monocytes [6]", "value": "decreasing; also recorded: significantly decreased"},
      {"measurement": "IFNγ in CD8+ T cells", "setting": "CD8+ T cells [9]; 0.001-0.1 μM", "value": "significantly decreased"},
      {"measurement": "TNFα in monocytes", "setting": "monocytes [4]; 10 μM", "value": "significantly decreased"}
    ]}
  ]
}
